The text below walks through data of patent US9072746B2, “Method for enhancing learning and memory impaired by neurodegenerative disorders and compounds and compositions for effecting the same” (The Board of Trustees of the Leland Stanford Junior …, priority 2010, dated 2015).

The structures appear in SMILES notation. Entries after “also recorded” stand apart in the source; their conditions may differ.

Type in all cases: in vivo
Experiment [1] relates to male 2N mice. Nature of the experiment: Exploratory activity in novel environment (Activity Chamber). Here is the method: (§1) The Activity Chamber (Med associates Inc., St. Albans, Vt.) was used for the evaluation of general activity, gross locomotor activity, and exploratory behavior. Assessment took place in a square arena, 43.2×43.2 cm, with 3 planes of infrared detectors within a specially designed sound attenuating chamber, 66×55.9×55.9 cm, under dim light. The animal was placed in the center of the testing arena and allowed to move freely for 30 minutes while being tracked by an automated tracking system. Distance moved, velocity, resting time, and vertical count (rearing) were recorded. […] In this part of the study, activity chamber and three cognitive tests, including T-maze spontaneous alternation, contextual fear conditioning (CFC), and novel object recognition were performed. In T-maze spontaneous alternation and contextual fear conditioning, both Ts65Dn and 2N male mice were divided into three treatment groups including normal saline (Vehicle), xamoterol, and betaxolol plus xamoterol groups. In the novel object recognition test, both Ts65Dn and 2N male mice were divided into two treatment groups, normal saline and xamoterol. The T-maze was performed exactly as previously described. […] On the first day (training day), animals were placed in the fear conditioning chamber, and after a 3-minute pre-shock period, they were exposed to 5 shocks (2 s, 0.5 mA,) with inter-trial intervals of 80 seconds and no tone. On the second day, the animals first received xamoterol, xamoterol plus betaxolol, or saline injection, and one hour later, they were placed in the same chamber for 5 minutes. Similar to the previous description of fear conditioning, freezing was defined as the complete lack of motion for a minimum of o.75 second. The Novel Object Recognition task is conducted in an open field arena (40 cm×40 cm). Mice were habituated in the testing room for 1 hour followed by 5 minutes habituation inside the arena without any objects. On 4th day animals were introduced 3 times to arena with 3 identical subjects for 10 minutes with 3 minutes inter trial intervals. On 5th day (24 hours after trainings) one of the objects replaced by a novel one and the time sniffing of each object were used for analysis. For testing the role of β1 adrenergic system, xamoterol and betaxolol (Tocris Bioscience, Ellisville, Mo.) were injected subcutaneously using 10 ml/kg normal saline as vehicle. Xamoterol, (3 mg/kg) was given one hour before testing and betaxolol (1 mg/kg) was given 30 minutes before testing.

Experiment [2] deals with male Ts65Dn mice. Described as above. The following applies: for effect on locomotor activity (total ambulatory distance moved): xamoterol 3 mg/kg s.c. Here is the method: as §1
Experiment [3] relates to male 2N mice. Put plainly: Novel object recognition. The following applies: xamoterol 3 mg/kg s.c. Here is the method: (§2) In this part of the study, activity chamber and three cognitive tests, including T-maze spontaneous alternation, contextual fear conditioning (CFC), and novel object recognition were performed. In T-maze spontaneous alternation and contextual fear conditioning, both Ts65Dn and 2N male mice were divided into three treatment groups including normal saline (Vehicle), xamoterol, and betaxolol plus xamoterol groups. In the novel object recognition test, both Ts65Dn and 2N male mice were divided into two treatment groups, normal saline and xamoterol. The T-maze was performed exactly as previously described. […] On the first day (training day), animals were placed in the fear conditioning chamber, and after a 3-minute pre-shock period, they were exposed to 5 shocks (2 s, 0.5 mA,) with inter-trial intervals of 80 seconds and no tone. On the second day, the animals first received xamoterol, xamoterol plus betaxolol, or saline injection, and one hour later, they were placed in the same chamber for 5 minutes. Similar to the previous description of fear conditioning, freezing was defined as the complete lack of motion for a minimum of o.75 second. The Novel Object Recognition task is conducted in an open field arena (40 cm×40 cm). Mice were habituated in the testing room for 1 hour followed by 5 minutes habituation inside the arena without any objects. On 4th day animals were introduced 3 times to arena with 3 identical subjects for 10 minutes with 3 minutes inter trial intervals. On 5th day (24 hours after trainings) one of the objects replaced by a novel one and the time sniffing of each object were used for analysis. For testing the role of β1 adrenergic system, xamoterol and betaxolol (Tocris Bioscience, Ellisville, Mo.) were injected subcutaneously using 10 ml/kg normal saline as vehicle. Xamoterol, (3 mg/kg) was given one hour before testing and betaxolol (1 mg/kg) was given 30 minutes before testing.

Experiment [4] relates to male Ts65Dn mice. Put plainly: Novel object recognition. The following applies: xamoterol 3 mg/kg s.c. As to the method: as §2
For the next experiment, the system named is C57Bl/6J mice. Put plainly: Contextual fear conditioning memory retrieval (FIG. 10A, B). The following applies: betaxolol 1 mg/kg s.c. As to the method:
In all experiments xamoterol 3 mg/kg, atenolol 3 mg/kg, and betaxolol 1 mg/kg were injected subcutaneously. […] Results are shown as mean+SEM (ns=not significant, *=p<0.05, and **=p<0.01).

Setting [5] is: xamoterol 3 mg/kg s.c. one hour before testing.

With `O=C(NCCNCC(O)COc1ccc(O)cc1)N1CCOCC1` (stereo not drawn) [xamoterol], the “effect on locomotor activity (total ambulatory distance moved)” value was “no significant effect” in the experiment with male 2N mice [1] (xamoterol 3 mg/kg s.c.), “no significant effect” in the experiment with male Ts65Dn mice [2], “did not show a significant effect” in the experiment with male Ts65Dn mice [2] (listed as Xamoterol) and “Xamoterole has no effect on activity” in the experiment with male Ts65Dn mice [2] (listed as Xamoterole). Moreover, the “Total Ambulatory Distance Moved in Activity Chamber (cm), Mean ± SEM” value in the experiment on male 2N mice [1] (setting [5]) came to 2554 ± 192 cm; in the experiment on male Ts65Dn mice [2] (setting [5]) it was 3878 ± 765 cm. In addition, in the experiment on male 2N mice [3] (2N mice), the “effect on novel object recognition performance” value is reported as “had no effect”. The entries for the “% of Total Investigation in Novel Object Recognition, Mean ± SEM” value with male 2N mice [3] (male 2N mice) and with male Ts65Dn mice [4] were 78.6 ± 2.6% and 73.6 ± 4.2%, respectively. Also, the “effect on novel object recognition deficit” value is given as “completely rescue; also recorded: corrected” with male Ts65Dn mice [4] and “could correct” with male Ts65Dn mice [4] (listed as Xamoterol). Also, the “reversal of betaxolol-induced impairment of memory retrieval” value in the experiment with C57Bl/6J mice is “reverse the impairment dose-dependently”.
